≈ marks a conversion by molar mass, not a printed value.
Experiments:
[1] = system: E. coli spontaneous mutants; test: Broth microdilution MIC of spontaneous mutants; type: cell-based, Escherichia coli
Description: (§1) Select isolates were subcultured onto agar containing drug at the selection concentration, were identified by MALDI, and were frozen for broth microdilution MIC testing as described below.
(§2) To determine whether colonies growing on drug selection plates had elevated MIC values to the selecting antibiotic, susceptibility testing by broth microdilution was conducted on isolated mutants following methodology recommended by CLSI (1), (2), and (3) “Performance Standards for Antimicrobial Susceptibility Testing; Twenty-Eighth Informational Supplement.,” CLSI document M100-S28, 2018.
(§3) All wells in columns 2 through 12 of a standard 96-well microdilution plate (Costar 3795) were filled with 150 μL of the appropriate diluent. Then, 300 μL of the test agents were added to the wells of column 1 of the plates at […] the highest final concentration to be tested. Serial two-fold dilutions were made across the rows through column 11 using the Biomek 2000. The wells of column 12 contained no drug and served as the growth control wells. This plate served as the “mother plate” from which selected MIC assay plates or “daughter plates” were made.
(§4) 2 μL of drug solution from each well of a mother plate was added to each corresponding well of the daughter plate in a single step. A standardized inoculum of each aerobic test organism was prepared per CLSI methods to equal a 0.5 McFarland standard, followed by a dilution of 1:20 in MHB II. The plates were then inoculated with 10 μL of the diluted inoculum using the Biomek 2000 from low to high drug concentration, resulting in a final concentration of approximately 5×10^5 CFU/mL. An un-inoculated plate was incubated for the purpose of assessing solubility of the drug in the test media.
(§5) The plates for the aerobic tests were stacked 3-4 high, covered with a sterile lid on the top plate, and incubated aerobically at 35° C. for 18-20 hr. The MIC was recorded as the lowest concentration of drug that inhibited visible growth of the organism.

[2] = system: Streptococcus spp. spontaneous mutants; test: organism not typed; type: cell-based
Description: as §1, §2, §3, §4, §5

[3] = system: Bacteroides spp. spontaneous mutants; test: Broth microdilution MIC of spontaneous mutants; type: cell-based
Description: as §1, §2, §3
Daughter plates for anaerobic organisms were transferred to a Bactron II anaerobic chamber (Sheldon Manufacturing Inc., Cornelius, Oreg.) to reduce for 1 hour prior to inoculation. The inoculum for each organism was prepared in the anaerobic chamber and dispensed into sterile disposable reservoirs. Inoculation was completed using a multichannel pipette to transfer 10 μL of the inoculum into each well of the daughter plate. This yielded a final cell concentration in the daughter plates of approximately 1×10^6 CFU/mL.

COc1c(N2C[C@@H]3CCCN[C@@H]3C2)c(F)cc2c(=O)c(C(=O)O)cn(C3CC3)c12 [MOX] gave an MIC ([1]; E. coli ATCC 25922, selected on rifaximin 4X MIC, Colony A) of 0.015 µg/mL, an MIC ([1]; E. coli ATCC 25922, selected on rifaximin 4X MIC, Colony B) of 0.015 µg/mL and an MIC ([1]; E. coli ATCC 25922, selected on rifaximin 8X MIC, Colony A) of 0.015 µg/mL. For the same compound, the MIC ([1]; E. coli ATCC 25922, selected on rifaximin 8X MIC, Colony B) was 0.015 µg/mL, the MIC ([1]; E. coli ATCC 25922 Parent (Table 52)) was 0.03 µg/mL and the MIC ([1]; E. coli ATCC 35218, selected on rifaximin 4X MIC, Colony A) was 0.03 µg/mL. It also gave an MIC ([1]; E. coli ATCC 35218, selected on rifaximin 4X MIC, Colony B) of 0.03 µg/mL, an MIC ([1]; E. coli ATCC 35218, selected on rifaximin 8X MIC, Colony A) of 0.03 µg/mL and an MIC ([1]; E. coli ATCC 35218, selected on rifaximin 8X MIC, Colony B) of 0.03 µg/mL. The MIC ([1]; E. coli ATCC 35218 Parent (Table 52)) was 0.03 µg/mL, the MIC ([1]; E. coli MMX 1312, selected on ceftriaxone 4X MIC, Colony A) was 0.03 µg/mL and the MIC ([1]; E. coli MMX 1312, selected on ceftriaxone 4X MIC, Colony B) was 0.06 µg/mL. The MIC ([1]; E. coli MMX 1312, selected on ceftriaxone 4X MIC, Colony C) was 0.03 µg/mL, the MIC ([1]; E. coli MMX 1312, selected on ceftriaxone 8X MIC, Colony A) was 0.03 µg/mL and the MIC ([1]; E. coli MMX 1312, selected on ceftriaxone 8X MIC, Colony B) was 0.03 µg/mL. For the same compound, the MIC ([1]; E. coli MMX 1312, selected on ceftriaxone 8X MIC, Colony C) was 0.03 µg/mL, the MIC ([1]; E. coli MMX 1312, selected on rifaximin 4X MIC, Colony A) was 0.03 µg/mL and the MIC ([1]; E. coli MMX 1312, selected on rifaximin 4X MIC, Colony B) was 0.03 µg/mL. For the same compound, the MIC ([1]; E. coli MMX 1312, selected on rifaximin 8X MIC, Colony A) was 0.03 µg/mL, the MIC ([1]; E. coli MMX 1312, selected on rifaximin 8X MIC, Colony B) was 0.03 µg/mL and the MIC ([1]; E. coli MMX 1312 Parent) was 0.03 µg/mL. For the same compound, the MIC ([1]; E. coli MMX 1312 Parent (Table 49)) was 0.03 µg/mL, the MIC ([1]; E. coli MMX 1312 Parent (Table 52)) was 0.03 µg/mL and the MIC ([1]; E. coli MMX 1312 mutant selected on meropenem 4X MIC, colony A) was 0.03 µg/mL. The MIC ([1]; E. coli MMX 1312 mutant selected on meropenem 4X MIC, colony B) was 0.03 µg/mL, the MIC ([1]; E. coli MMX 1312 mutant selected on meropenem 4X MIC, colony C) was 0.03 µg/mL and the MIC ([1]; E. coli MMX 1312 mutant selected on meropenem 8X MIC, colony A) was 0.03 µg/mL. The MIC ([1]; E. coli MMX 1312 mutant selected on meropenem 8X MIC, colony B) was 0.03 µg/mL, the MIC ([1]; E. coli MMX 1312 mutant selected on meropenem 8X MIC, colony C) was 0.03 µg/mL and the MIC ([2]; S. agaloctiae ATCC 13813, selected on rifaximin 4X MIC, Colony A) was 0.06 µg/mL (≈ 0.149 µM). It also gave an MIC ([2]; S. agaloctiae ATCC 13813, selected on rifaximin 4X MIC, Colony B) of 0.06 µg/mL (≈ 0.149 µM), an MIC ([2]; S. agaloctiae ATCC 13813, selected on rifaximin 8X MIC, Colony A) of 0.06 µg/mL (≈ 0.149 µM) and an MIC ([2]; S. agaloctiae ATCC 13813, selected on rifaximin 8X MIC, Colony B) of 0.03 µg/mL (≈ 0.0747 µM). The MIC ([2]; S. agaloctiae ATCC 13813 Parent) was 0.06 µg/mL (≈ 0.149 µM), the MIC ([2]; S. pneumoniae ATCC 49619, selected on rifaximin 4X MIC, Colony A) was 0.06 µg/mL (≈ 0.149 µM) and the MIC ([2]; S. pneumoniae ATCC 49619, selected on rifaximin 4X MIC, Colony B) was 0.06 µg/mL (≈ 0.149 µM). The MIC ([2]; S. pneumoniae ATCC 49619, selected on rifaximin 8X MIC, Colony A) was 0.06 µg/mL (≈ 0.149 µM), the MIC ([2]; S. pneumoniae ATCC 49619, selected on rifaximin 8X MIC, Colony B) was 0.06 µg/mL (≈ 0.149 µM) and the MIC ([2]; S. pneumoniae ATCC 49619 Parent) was 0.12 µg/mL (≈ 0.299 µM). The MIC ([2]; S. pyogenes ATCC 49399, selected on rifaximin 4X MIC, Colony A) was 0.06 µg/mL (≈ 0.149 µM), the MIC ([2]; S. pyogenes ATCC 49399, selected on rifaximin 4X MIC, Colony B) was 0.06 µg/mL (≈ 0.149 µM) and the MIC ([2]; S. pyogenes ATCC 49399, selected on rifaximin 8X MIC, Colony A) was 0.06 µg/mL (≈ 0.149 µM). For the same compound, the MIC ([2]; S. pyogenes ATCC 49399, selected on rifaximin 8X MIC, Colony B) was 0.06 µg/mL (≈ 0.149 µM), the MIC ([2]; S. pyogenes ATCC 49399 Parent) was 0.06 µg/mL (≈ 0.149 µM) and the MIC ([3]; B. fragilis ATCC 25285, selected on rifaximin 4X MIC, Colony A) was 0.06 µg/mL. The MIC ([3]; B. fragilis ATCC 25285, selected on rifaximin 4X MIC, Colony B) was 0.12 µg/mL, the MIC ([3]; B. fragilis ATCC 25285, selected on rifaximin 8X MIC, Colony A) was 0.12 µg/mL and the MIC ([3]; B. fragilis ATCC 25285, selected on rifaximin 8X MIC, Colony B) was 0.12 µg/mL. For the same compound, the MIC ([3]; B. fragilis ATCC 25285 Parent) was 0.06 µg/mL, the MIC ([3]; B. ovatus MMX 3503, selected on rifaximin 4X MIC, Colony A) was 2 µg/mL and the MIC ([3]; B. ovatus MMX 3503, selected on rifaximin 4X MIC, Colony B) was 0.5 µg/mL. For the same compound, the MIC ([3]; B. ovatus MMX 3503, selected on rifaximin 8X MIC, Colony A) was 1 µg/mL, the MIC ([3]; B. ovatus MMX 3503, selected on rifaximin 8X MIC, Colony B) was 1 µg/mL and the MIC ([3]; B. ovatus MMX 3503 Parent) was 1 µg/mL. The MIC ([3]; B. vulgatus ATCC 8482, selected on ceftriaxone 4X MIC, Colony A) was 0.5 µg/mL, the MIC ([3]; B. vulgatus ATCC 8482, selected on ceftriaxone 4X MIC, Colony B) was 0.5 µg/mL and the MIC ([3]; B. vulgatus ATCC 8482, selected on rifaximin 4X MIC, Colony A) was 0.5 µg/mL. The MIC ([3]; B. vulgatus ATCC 8482, selected on rifaximin 4X MIC, Colony B) was 0.25 µg/mL, the MIC ([3]; B. vulgatus ATCC 8482, selected on rifaximin 8X MIC, Colony A) was 0.5 µg/mL and the MIC ([3]; B. vulgatus ATCC 8482, selected on rifaximin 8X MIC, Colony B) was 0.5 µg/mL. The MIC ([3]; B. vulgatus ATCC 8482 Parent (Table 50)) was 0.5 µg/mL and the MIC ([3]; B. vulgatus ATCC 8482 Parent (Table 54)) was 0.5 µg/mL.

Source: patent publication US20210386367A1, “DEVICES AND SYSTEMS FOR GASTROINTESTINAL MICROBIOME DETECTION AND MANIPULATION” (Progenity, Inc., priority 2018, published 2021)
